From patent US20260166033A1, “USE OF A FGFR3 TYROSINE KINASE INHIBITOR FOR THE TREATMENT OF FGFR-RELATED BONE REPAIR AND BONE FORMATION IMPAIRMENTS” (INSTITUT NATIONAL DE LA SANTÉ ET DE LA RECHERCHE MÉDICALE, priority 2021, published 2026)

Tests used:
[1] = system: mouse model of ACH (Fgfr3Y367C/+); settings: Fgfr3Y367C/+ mice; Komla Ebri et al 2016, Biosse Duplan et al 2016; cited from earlier work
[2] = system: HCH mice (Fgfr3^N534K/+); assay: Non-stabilized mandibular fracture bone repair in the HCH mouse model, microCT scans and repair grade; type: in vivo
Description: Mandibular bone repair was studied in the HCH mouse model (Fgfr3^N534K/+). The experiments were performed in adult animals at 6 weeks of age, and mice were euthanized at 4 key points: during bone repair (10, 14, 21 days post fracture), and at the end of the normal bone healing process i.e. at 28 days post fracture.
Vertical mandibular fractures were performed in the ascending ramus region in Fgfr3^N534K/+ and Fgfr3^+/+ mice. This is a non-stabilized mandibular fracture protocol allowing to analyze the endochondral bone repair process.
Four batches (n=100) of Fgfr3^N534K/+ and Fgfr3^+/+ mandible fractures corresponding to different key stages of repair were studied (day 10, day 14, day 21, day 28). Using collagen type II (proliferative cartilage), type X (hypertrophic cartilage) and type I (bone) immunolabelling, we observed that the endochondral process is disturbed, we noted a delayed cartilage resorption, a reduction in the size of hypertrophic chondrocytes area and a defect in bone formation within the repair callus in Fgfr3^N534K/+ compared to Fgfr3^+/+. […] We observed the presence of pseudarthrosis (fibrosis in the callus) in Fgfr3^N534K/+ mice whereas we observed 100% of bone in Fgfr3^+/+ callus. Considering the quality of the newly formed bone at day 28, we defined four grades of repair and classified the mice according to their repair grade (from 1 to 4). The defective repair is significant in Fgfr3^N534K/+ compared to Fgfr3^+/+ (FIG. 1C).
HCH mice (Fgfr3^N534K/+) were treated with infigratinib (subcutaneous injections at 4 mg/kg, 3 times per week) from day 0 (facture of the mandible) to day 14 or day 28. The bone repair analyses were evaluated by microCT scans at day 14 and day 28 post fracture (FIGS. 1A and 1B). We quantified BV/TV (Bone Volume/Total Volume) and Callus volume (ratio TV (total volume) of the callus/TV of the contralateral ascending ramus region).

[3] = day 28 grade repair, treated Fgfr3^N534K/+ mice

CCN1CCN(c2ccc(Nc3cc(N(C)C(=O)Nc4c(Cl)c(OC)cc(OC)c4Cl)ncn3)cc2)CC1 [BGJ398, 3-(2,6-dichloro-3,5-dimethoxyphenyl)-1-[6-[4-(4-ethylpiperazin-1-yl)anilino]pyrimidin-4-yl]-1-methylurea]
Effect on affected skeletal elements (long bones, vertebrae, intervertebral discs, craniofacial morphology, foramen magnum) [1]: improvement of many of the affected skeletal elements in ACH
Effect on defective bone reparation of the callus (summary in words) ([2]; HCH mandible, non-stabilized fracture): partially restore the defective bone reparation of the callus, increases the bone volume/total volume without pseudarthrosis
Callus volume (ratio TV of the callus/TV of the contralateral ascending ramus region), treated vs untreated HCH mice ([2]; day 14 post fracture, subcutaneous 4 mg/kg, 3 times per week from day 0, microCT): unchanged
BV/TV (Bone Volume/Total Volume), change in treated vs untreated HCH mice ([2]; day 14 post fracture, subcutaneous 4 mg/kg, 3 times per week from day 0, microCT, p<0.05): +20.8%
Complete bone healing (grade 1), mice with this repair grade [2, 3]: 7/10
Restoration of bone continuity, but presence of mild bone defects (grade 2), mice with this repair grade [2, 3]: 3/10
Callus volume, change in treated vs untreated HCH mice ([2]; day 28 post fracture, subcutaneous 4 mg/kg, 3 times per week from day 0, microCT, p<0.0001): −38.6%
BV/TV (Bone Volume/Total Volume), change in treated vs untreated HCH mice ([2]; day 28 post fracture, subcutaneous 4 mg/kg, 3 times per week from day 0, microCT, p<0.01): +17.8%
